# “Also recorded” adds a separate entry of the source. Structures can show the parent of a compound that is named as a salt.
# Assays:
# Format in all cases: physicochemical
# [1] = Stability test: purity / related substances by high-performance liquid chromatography after storage; details: 75±5% RH; for purity by high-performance liquid chromatography: stored sealed in amber vial at 40±2° C.
# Protocol: (§1) After 2 weeks and 4 weeks of storage, the occurrence and increase of related substances in each sample were evaluated by high-performance liquid chromatography, and changes were confirmed by X-ray powder diffraction analysis and differential scanning calorimetry to evaluate stability.
# [2] = Stability test: properties (appearance) and X-ray powder diffraction analysis after storage; details: 40±2° C., 75±5% RH
# Protocol: Diffraction patterns were obtained in the range of 3 to 40° 2θ using a X-ray powder diffractometer, and the X-ray powder diffraction analysis conditions were as follows. • Instrument: BrukerA26X1 D2 Phaser • Time per step: 0.5 s • Scanning method: Continuous PSD fast • Detector: Lynxeye (1D mode) (2) Differential Scanning Calorimetry (DSC)
# as §1
# [3] = Hygroscopicity test by dynamic vapor adsorption and desorption (DVS); details: for hygroscopicity compared with amorphous eribulin mesylate: 25° C. and 80% RH; for stability to moisture compared with amorphous eribulin mesylate: DVS hygroscopicity test; for crystalline form after the hygroscopicity test: after the test was completed
# Protocol: Eribulin edisylate obtained in Examples 2, 5, and 7 and the amorphous eribulin mesylate, which is the active component of commercially available Halaven, were subjected to hygroscopicity test by repeating moisture adsorption and desorption once at an interval of 5% RH in an isothermal condition of 25° C. and a relative humidity of 2 to 98% using dynamic vapor adsorption and desorption (DVS) (dynamic vapor adsorption, VTI SGA-100, TA Instruments).
Molecule,purity by high-performance liquid chromatography ([1]; time 0 week) [%],purity by high-performance liquid chromatography ([1]; time 2 weeks) [%],purity by high-performance liquid chromatography ([1]; time 4 weeks) [%],"purity by high-performance liquid chromatography ([1]; time 4 weeks, listed as eribulin mesylate) [%]",change in properties ([2]; 2nd week),change in properties ([2]; 4th week),solid state over time in the stability test ([2]; over time),X-ray powder diffraction analysis result (solid form) ([2]; time 0 week),"X-ray powder diffraction analysis result (solid form) ([2]; time 0 week, listed as eribulin mesylate)",X-ray powder diffraction analysis result (solid form) ([2]; time 2 weeks),X-ray powder diffraction analysis result (solid form) ([2]; time 4 weeks),"deliquescence during the hygroscopicity test ([3]; DVS, 25° C., 2 to 98% RH)",hygroscopicity compared with amorphous eribulin mesylate [3],stability to moisture compared with amorphous eribulin mesylate ([3]; 25° C.),"crystalline form after the hygroscopicity test ([3]; DVS, 25° C., 2 to 98% RH)","Hygroscopicity (EP standard (25° C., 80% RH)) ([3]; DVS, 25° C.) [%]","decrease in purity (increase in related substances) ([1]; 40±2° C., during 4 weeks) [%]","stability to heat and humidity compared with eribulin mesylate ([1]; 40±2° C., up to 4 weeks, Ammonium Salt)",change in properties ([2]; whole stability test period (4 weeks))
C=C1C[C@@H]2CC[C@@]34C[C@H]5O[C@H]6[C@@H](O3)[C@H]3O[C@H](CC[C@@H]3O[C@H]6[C@H]5O4)CC(=O)C[C@@H]3[C@@H](OC)[C@@H](C[C@H](O)CN)O[C@H]3C[C@H]3O[C@@H](CC[C@@H]1O2)C[C@@H](C)C3=C.CS(=O)(=O)O [Eribulin mesylate],99.66,88.00,7.30,7,the solid deliquesced and the color changed to yellow,the deliquescent state was maintained and the color changed from yellow to brown,deliquescence was observed,amorphous,amorphous solid,deliquescence,deliquescence,deliquescence was observed,–,–,–,–,–,–,–
Eribulin Edisylate Dicyclohexylamine Salt [Example 7],–,–,–,–,–,–,–,–,–,–,–,–,lower hygroscopicity,superior stability to moisture,initial crystalline form was maintained,5.6,–,–,–
Eribulin Edisylate Cyclohexylamine Salt [Example 5],–,–,–,–,–,–,–,–,–,–,–,–,lower hygroscopicity,superior stability to moisture,initial crystalline form was maintained,5.2,–,–,–
"C=C1C[C@@H]2CC[C@@]34C[C@H]5O[C@@H]6C(O[C@H]7CC[C@H](CC(=O)C[C@@H]8[C@@H](OC)[C@@H](C[C@H](O)CN)O[C@H]8C[C@H]8O[C@@H](CC[C@@H]1O2)C[C@@H](C)C8=C)O[C@@H]7[C@@H]6O3)[C@H]5O4 [Example 2, Eribulin Edisylate Ammonium Salt]",99.73,99.50,99.35,–,–,–,–,crystalline,–,maintain,maintain,–,lower hygroscopicity,superior stability to moisture,initial crystalline form was maintained,5.4,≤ 0.5,excellent stability to heat and humidity; also recorded: more stable to heat and humidity,No change in properties

# — patent US12486283B2, “Crystalline salt of eribulin” (priority 2020, dated 2025)
